Results from patent US20140051696A1, “THERAPIES FOR TREATING CANCER” (GILEAD CALISTOGA LLC, priority 2012, published 2014).
“Also recorded” adds a separate entry of the source. Where two headings read alike, the source gives them in different places. Values belong to the molecule of their own block, whether it stands above or below them.

Key:
recurrent CLL = conditions: cited from earlier work; for median progression-free survival (PFS): patients with recurrent CLL
[1] = Plasma pharmacokinetics in healthy human subjects, alone or in combination; conditions: for AUC / Cmax: human, Mean (% CV); for AUC: AUCtau
Protocol: On Day 1, PK samples were collected at pre-dose, 2, 4, 8, and 12 hours post dose. On Day 4, samples were collected relative to the AM dose of study drug(s) at the following time points: pre-dose, 1, 2, 2.5, 3, 4, 6, 8, 10, 12, 18, 24, 36, and 48 hours post dose. Trough PK samples were collected on Day 3 prior to dosing.

[2] = test system: S6 phosphorylation in CLL cells; test: Flow cytometry phospho-S6 in CLL cells co-cultured with HS5 stromal cells; type: cell-based, human; conditions: CLL cells of 15 patients co-cultured with HS5 stromal cells
Excerpt: (§1) Ficoll purified CLL cells obtained from 15 patients were co-cultured with HS5 stromal cells then treated with each compound alone or in combination. CLL cells were stained with anti-CD5-FITC and either anti-phospho-Akt S473 (Alexa Fluor 488), phospho-S6 or an […] control antibody (mouse IgG1-Alexa Fluor 488 conjugate, Cell Signaling) and analyzed by 2-color flow cytometry.

primary CLL cells = test: MTS cell viability assay of primary CLL cells in HS-5 conditioned media; conditions: Homo sapiens
Protocol: (§3) In this Example, CLL patient samples were assessed for growth inhibition, chemokine release, and pathway activation status using a tetrazolium-based MTS assay, ELISA, and flow cytometry, respectively. Peripheral blood mononuclear cells (PBMCs) were isolated from primary patient samples using a Ficoll-Paque gradient. […] 5×10^5 primary cells were cultured in triplicate in HS-5 stromal cell conditioned media and growth inhibition was determined after 72 hours.
Peripheral blood (PB) or bone marrow (BM) was collected from 14 CLL patients with untreated, relapsed, or refractory diseases. Mononuclear cells were isolated using a Ficoll-Paque gradient and were plated in triplicate into 96-well containing HS-5 conditioned media plus equimolar concentrations of Compound A and Compound B (10 μM to 0.61 nM). After 72 hours, viability was determined by MTS assay (CellTiter 96, Promega).

[3] = test system: ERK phosphorylation (T202/Y204) in Ramos cells; test: Immunoblot phospho-Erk in Ramos cells after anti-IgM BCR stimulation; type: cell-based, human; conditions: 1 uM each, IgM mediated BCR stimulation
Protocol: (§2) 5×10^6 Ramos (a Burkitt's cell line with intact BCR) were plated and treated with 1 uM of Compound A, 1 uM of Compound B, alone or in combination for 25 hours. Twenty μg Goat F(ab′)2 anti-human IgM (Invitrogen) was added to stimulate the BCR for 30 minutes. Protein were isolated and analyzed using immune-blotting with phospho-Akt (S473), phospho-Erk (T202/Y204), and phospho-S6.

CCL2, CCL3, and CCL4 = test: Chemokine release ELISA, CLL patient samples in conditioned media; type: cell-based, human; conditions: patient samples cultured in conditioned media; alone and in combination
Protocol: as §3

[4] = test system: AKT phosphorylation (S473) in Ramos cells; test: Immunoblot phospho-Akt in Ramos cells after anti-IgM BCR stimulation; type: cell-based, human; conditions: 1 uM each, IgM mediated BCR stimulation
Protocol: as §2

[5] = test system: AKT phosphorylation (S473) in CLL cells; test: Flow cytometry phospho-Akt in CLL cells co-cultured with HS5 stromal cells; type: cell-based, human; conditions: CLL cells of 15 patients co-cultured with HS5 stromal cells
Excerpt: as §1

[6] = Safety and tolerability in healthy human subjects; conditions: for tolerability: over the dose range evaluated, healthy subjects
Excerpt: The endpoints evaluated include AEs, physical examination and clinical laboratory test findings, 12-lead ECG abnormalities and interval measurements, and vitals signs measurements.
Safety data for each cohort was reviewed after the 10-day observation period following each 4 day treatment period. Subsequent treatments in each cohort were only initiated following post dose safety assessments.

WSU-FSCCL parental cells = test: AlamarBlue growth inhibition, WSU-FSCCL parental cells; type: cell-based, human; conditions: initially, 72 hr
Protocol: The WSU-FSCCL parental cells were, initially, responsive to treatment of Compound A (FIG. 10A). […] Such cells were cultured and referred to as WSU-FSCCL resistant cells. This reflects a commonly observed clinical situation that patients become resistance or no longer respond to the existing treatment. Both the parental and the resistant cells of WSU-FSCCL were used in this study.
A 7× serial dilution of Compound A and Compound C from a stock of 10 mM (DMSO) was prepared using RPMI+10% FBS (270 μM). The WS-FSCCL cells were added with the compounds in the serial dilution and incubated at 37° C. for 72 hr, followed by the addition of 12.5 μL AlamarBlue (Invitrogen #DAL1100). Plates were then incubated at 37° C. for 4 hours.
The change of color from uptake of the stains in the living cells was measured for absorbance. Fluorescence Ex530, Em590, Cutoff570 on Spectramax M5 (Molecular Dynamics) were determined. To calculate the 50% inhibition of growth (GI50), the reading from the samples were compared to the controls (100% or 0% absorption).

[7] = test system: WSU-FSCCL resistant cells; test: AlamarBlue growth inhibition, WSU-FSCCL resistant cells; type: cell-based, human; conditions: 72 hr
Protocol: The WSU-FSCCL parental cells were, initially, responsive to treatment of Compound A (FIG. 10A). […] Such cells were cultured and referred to as WSU-FSCCL resistant cells. This reflects a commonly observed clinical situation that patients become resistance or no longer respond to the existing treatment. Both the parental and the resistant cells of WSU-FSCCL were used in this study. […] The […] cells were added with the compounds in the serial dilution and incubated at 37° C. for 72 hr, followed by the addition of 12.5 μL AlamarBlue (Invitrogen #DAL1100). Plates were then incubated at 37° C. for 4 hours. The change of color from uptake of the stains in the living cells was measured for absorbance. Fluorescence Ex530, Em590, Cutoff570 on Spectramax M5 (Molecular Dynamics) were determined.

[8] = Compound B analyte, Compound B 200 mg + Compound A 100 mg vs Compound B 200 mg
[9] = Compound B analyte, Compound B 600 mg + Compound A 100/150 mg vs Compound B 600 mg
[10] = in vivo, 200 mg, Compound B analyte, Compound B 200 mg BID alone, fed (N = 8)
[11] = in vivo, 600 mg, Compound B analyte, Compound B 600 mg BID alone, fed (N = 16)
[12] = in vivo, Compound B analyte, Compound B 200 mg + Compound A 100 mg BID, fed (N = 8)
[13] = in vivo, Compound B analyte, Compound B 600 mg + Compound A 100/150 mg BID, fed (N = 14)
[14] = Compound A analyte, Compound A 150 mg + Compound B 600 mg vs Compound A 150 mg
[15] = Compound A analyte, Compound A 100 + Compound B 200 or 600 mg vs Compound A 100 mg
[16] = plasma, oral, 100 mg, Compound A analyte, Compound A 100 mg BID alone, fed (N = 16)
[17] = plasma, oral, 150 mg, Compound A analyte, Compound A 150 mg BID alone, fed (N = 7)
[18] = plasma, oral, Compound A analyte, Compound A 150 mg + Compound B 600 mg BID, fed (N = 6)
[19] = plasma, oral, Compound A analyte, Compound A 100 + Compound B 200 or 600 mg BID, fed (N = 16)

Molecule: alemtuzumab
- median progression-free survival (PFS) (recurrent CLL): 4.7 months

- Ctau, Mean (% CV) ([1]; Compound B analyte, Compound B 200 mg + Compound A 100 mg BID, fed (N = 8)): 380 (62) ng/ml
- AUCtau, % Geometric Least Squares Means Ratio (90% CI), Combination vs. Alone [1, 8]: 1.64 (1.41, 1.91) %
- Cmax, % Geometric Least Squares Means Ratio (90% CI), Combination vs. Alone [1, 8]: 1.50 (1.24, 1.80) %
- Ctau, % Geometric Least Squares Means Ratio (90% CI), Combination vs. Alone [1, 8]: 1.96 (1.61, 2.38) %
- Ctau, Mean (% CV) ([1]; Compound B analyte, Compound B 200 mg BID alone, fed (N = 8)): 201 (661) ng/ml
- Ctau, Mean (% CV) ([1]; Compound B analyte, Compound B 600 mg + Compound A 100/150 mg BID, fed (N = 14)): 1120 (72) ng/ml
- AUCtau, % Geometric Least Squares Means Ratio (90% CI), Combination vs. Alone [1, 9]: 1.51 (1.30, 1.75) %
- Cmax, % Geometric Least Squares Means Ratio (90% CI), Combination vs. Alone [1, 9]: 1.38 (1.20, 1.59) %
- Ctau, % Geometric Least Squares Means Ratio (90% CI), Combination vs. Alone [1, 9]: 1.74 (1.48, 2.03) %
- Ctau, Mean (% CV) ([1]; Compound B analyte, Compound B 600 mg BID alone, fed (N = 16)): 832 (82) ng/ml
- AUC [1, 10]: 4.15 µg·h/mL
- Cmax [1, 10]: 0.618 µg/mL
- AUC [1, 11]: 12.7 µg·h/mL
- Cmax [1, 11]: 1.57 µg/mL
- AUC [1, 12]: 6.75 µg·h/mL
- AUC [1, 13]: 16 µg·h/mL
- Cmax [1, 12]: 0.915 µg/mL
- Cmax [1, 13]: 1.9 µg/mL
Molecule: c1cn2cc(-c3ccc4cn[nH]c4c3)nc(Nc3ccc(N4CCOCC4)cc3)c2n1 [Compound B, 6-(1H-indazol-6-yl)-N-(4-morpholinophenyl)imidazo[1,2-a]pyrazin-8-amine]
- S6 phosphorylation in CLL cells [2]: inhibited or decreased
- IC50 (primary CLL cells; 72 h, read-out: median cell viability IC50): 3.7 µM
- IC50 (primary CLL cells; read-out: cell viability IC50 obtained in 7 samples (50%)): ≤ 2 µM
- ERK phosphorylation in Ramos cells [3]: inhibit or reduced; also recorded: near complete inhibition or reduction
- production of CCL2, CCL3, and CCL4 by CLL cells (CCL2, CCL3, and CCL4): reduced
- AKT phosphorylation in Ramos cells [4]: inhibited or decreased
- AKT phosphorylation in CLL cells [5]: inhibited or decreased
- tolerability [6]: generally well-tolerated

- Ctau, Mean (% CV) ([1]; Compound A analyte, Compound A 100 mg BID alone, fed (N = 16)): 127 (44) ng/ml
- Ctau, Mean (% CV) ([1]; Compound A analyte, Compound A 150 mg + Compound B 600 mg BID, fed (N = 6)): 411 (29) ng/ml
- AUCtau, % Geometric Least Squares Means Ratio (90% CI), Combination vs. Alone [1, 14]: 1.11 (1.00, 1.24) %
- Cmax, % Geometric Least Squares Means Ratio (90% CI), Combination vs. Alone [1, 14]: 1.06 (0.93, 1.21) %
- Ctau, % Geometric Least Squares Means Ratio (90% CI), Combination vs. Alone [1, 14]: 1.23 (1.03, 1.47) %
- Ctau, Mean (% CV) ([1]; Compound A analyte, Compound A 150 mg BID alone, fed (N = 7)): 320 (43) ng/ml
- Ctau, Mean (% CV) ([1]; Compound A analyte, Compound A 100 + Compound B 200 or 600 mg BID, fed (N = 16)): 170 (50) ng/ml
- AUCtau, % Geometric Least Squares Means Ratio (90% CI), Combination vs. Alone [1, 15]: 1.17 (1.13, 1.22) %
- Cmax, % Geometric Least Squares Means Ratio (90% CI), Combination vs. Alone [1, 15]: 1.13 (1.07, 1.20) %
- Ctau, % Geometric Least Squares Means Ratio (90% CI), Combination vs. Alone [1, 15]: 1.33 (1.20, 1.48) %
- exposure of Compound A, combination vs alone ([1]; healthy subjects): minor variations
- AUC [1, 16]: 8.07 µg·h/mL
- Cmax [1, 16]: 1.66 µg/mL
- AUC [1, 17]: 13.8 µg·h/mL
- Cmax [1, 17]: 2.68 µg/mL
- AUC [1, 18]: 15.8 µg·h/mL
- AUC [1, 19]: 9.51 µg·h/mL
- Cmax [1, 18]: 2.87 µg/mL
- Cmax [1, 19]: 1.88 µg/mL
Molecule: CC[C@H](Nc1ncnc2[nH]cnc12)c1nc2cccc(F)c2c(=O)n1-c1ccccc1 [Compound A, (S)-2-(1-(9H-purin-6-ylamino)propyl)-5-fluoro-3-phenylquinazolin-4(3H)-one]
- S6 phosphorylation in CLL cells [2]: inhibited or decreased
- production of CCL2, CCL3, and CCL4 by CLL cells (CCL2, CCL3, and CCL4): reduced
- AKT phosphorylation in Ramos cells [4]: inhibited or decreased
- AKT phosphorylation in CLL cells [5]: inhibited or decreased
- response of WSU-FSCCL parental cells to treatment (WSU-FSCCL parental cells): responsive
- adverse event leading to discontinuation of treatment ([6]; one individual, during Compound A 150 mg dosing): Grade 1 ALT/AST elevation
- tolerability [6]: generally well-tolerated
- cell viability / sensitivity of WSU-FSCCL resistant cells [7]: became resistant to the treatment

Molecule: rituximab
- median PFS (recurrent CLL; addition of high-dose methylprednisone to rituximab): 12 months

Molecule: ofatumumab
- median progression-free survival (PFS) (recurrent CLL): 5.8 months
